# Test results reported in patent US11084790B2, “Insoluble complex or solvate thereof, pharmaceutical composition and use thereof” (Fruithy Holdings Limited, priority 2017, dated 2021).
# Experiments:
# [1] = Test on the solubility in media at different pH; type: physicochemical
# Experimental: Test on the Solubility in Media at Different pH
# About 200 mg of solid powders of Preparation Example 10 and Preparation Example 15 were added in a 500 mL phosphate buffered solution at different pH values (50 mmol/L, pH 5.5, pH 6.5, pH 7.4, and pH 8.0) respectively, placed into a dissolution tester, kept at a constant temperature of 37° C., and paddle stirred at 50 rpm for 72 hours. Appropriate amounts of the suspension were taken out at 15 min, 30 min, 45 min, 1 h, 2 h, 4 h, 6 h, 8 h, 24 h, 32 h, 48 h, and 72 h respectively, and centrifuged immediately (15000 rpm, 5 min). The supernatant was diluted with methanol by a factor of two. The concentration of the drug dissolved in the PB buffer solution was determined with an HPLC-b method.
# [2] = Test on the solubility in a simulated body fluid; type: physicochemical
# Experimental: Test on the Solubility in a Simulated Body Fluid
# The concentration of the drug dissolved in the PBS buffered solution was determined with an HPLC-a method.
# [3] = phosphate buffer pH 5.5, 37° C., 0.25 h
# [4] = phosphate buffer pH 5.5, 37° C., 0.5 h
# [5] = phosphate buffer pH 5.5, 37° C., 0.75 h
# [6] = phosphate buffer pH 5.5, 37° C., 1 h
# [7] = phosphate buffer pH 5.5, 37° C., 2 h
# [8] = phosphate buffer pH 5.5, 37° C., 4 h
# [9] = phosphate buffer pH 5.5, 37° C., 6 h
# [10] = phosphate buffer pH 5.5, 37° C., 8 h
# [11] = phosphate buffer pH 5.5, 37° C., 24 h
# [12] = phosphate buffer pH 5.5, 37° C., 32 h
# [13] = phosphate buffer pH 5.5, 37° C., 48 h
# [14] = phosphate buffer pH 5.5, 37° C., 72 h
# [15] = phosphate buffer pH 6.5, 37° C., 0.25 h
# [16] = phosphate buffer pH 6.5, 37° C., 0.5 h
# [17] = phosphate buffer pH 6.5, 37° C., 0.75 h
# [18] = phosphate buffer pH 6.5, 37° C., 1 h
# [19] = phosphate buffer pH 6.5, 37° C., 2 h
# [20] = phosphate buffer pH 6.5, 37° C., 4 h
# [21] = phosphate buffer pH 6.5, 37° C., 6 h
# [22] = phosphate buffer pH 6.5, 37° C., 8 h
# [23] = phosphate buffer pH 6.5, 37° C., 24 h
# [24] = phosphate buffer pH 6.5, 37° C., 32 h
# [25] = phosphate buffer pH 6.5, 37° C., 48 h
# [26] = phosphate buffer pH 6.5, 37° C., 72 h
# [27] = phosphate buffer pH 7.4, 37° C., 0.25 h
# [28] = phosphate buffer pH 7.4, 37° C., 0.5 h
# [29] = phosphate buffer pH 7.4, 37° C., 0.75 h
# [30] = phosphate buffer pH 7.4, 37° C., 1 h
# [31] = phosphate buffer pH 7.4, 37° C., 2 h
# [32] = phosphate buffer pH 7.4, 37° C., 4 h
# [33] = phosphate buffer pH 7.4, 37° C., 6 h
# [34] = phosphate buffer pH 7.4, 37° C., 8 h
# [35] = phosphate buffer pH 7.4, 37° C., 24 h
# [36] = phosphate buffer pH 7.4, 37° C., 32 h
# [37] = phosphate buffer pH 7.4, 37° C., 48 h
# [38] = phosphate buffer pH 7.4, 37° C., 72 h
# [39] = phosphate buffer pH 8.0, 37° C., 0.25 h
# [40] = phosphate buffer pH 8.0, 37° C., 0.5 h
# [41] = phosphate buffer pH 8.0, 37° C., 0.75 h
# [42] = phosphate buffer pH 8.0, 37° C., 1 h
# [43] = phosphate buffer pH 8.0, 37° C., 2 h
# [44] = phosphate buffer pH 8.0, 37° C., 4 h
# [45] = phosphate buffer pH 8.0, 37° C., 6 h
# [46] = phosphate buffer pH 8.0, 37° C., 8 h
# [47] = phosphate buffer pH 8.0, 37° C., 24 h
# [48] = phosphate buffer pH 8.0, 37° C., 32 h
# [49] = phosphate buffer pH 8.0, 37° C., 48 h
# [50] = phosphate buffer pH 8.0, 37° C., 72 h
# [51] = 0.01 M PBS pH 7.4, 37° C., 5 min
# [52] = 0.01 M PBS pH 7.4, 37° C., 15 min
# [53] = 0.01 M PBS pH 7.4, 37° C., 30 min
# [54] = 0.01 M PBS pH 7.4, 37° C., 24 h
smiles,measurement,setting,value
"CCCCN1CCCCC1C(=O)Nc1c(C)cccc1C.CCCCN1CCCCC1C(=O)Nc1c(C)cccc1C.O=C(O)c1cc2ccccc2c(Cc2c(O)c(C(=O)O)cc3ccccc23)c1O [Preparation Example 15, bis(bupivacaine) pamoate]",molar ratio of the solubility (bupivacaine to pamoic acid),"[1]; media at pH 5.5, pH 6.5, pH 7.4 and pH 8.0, remained for at least 72 hours",around 2.0
same,Molar concentration of Bupivacaine,[1]; [3],0.050 mmol/L
same,Molar concentration of Pamoic acid,[1]; [3],0.020 mmol/L
same,Molar concentration of Bupivacaine,[1]; [4],0.070 mmol/L
same,Molar concentration of Pamoic acid,[1]; [4],0.034 mmol/L
same,Molar concentration of Bupivacaine,[1]; [5],0.140 mmol/L
same,Molar concentration of Pamoic acid,[1]; [5],0.070 mmol/L
same,Molar concentration of Bupivacaine,[1]; [6],0.196 mmol/L
same,Molar concentration of Pamoic acid,[1]; [6],0.092 mmol/L
same,Molar concentration of Bupivacaine,[1]; [7],0.198 mmol/L
same,Molar concentration of Pamoic acid,[1]; [7],0.094 mmol/L
same,Molar concentration of Bupivacaine,[1]; [8],0.198 mmol/L
same,Molar concentration of Pamoic acid,[1]; [8],0.092 mmol/L
same,Molar concentration of Bupivacaine,[1]; [9],0.198 mmol/L
same,Molar concentration of Pamoic acid,[1]; [9],0.094 mmol/L
same,Molar concentration of Bupivacaine,[1]; [10],0.198 mmol/L
same,Molar concentration of Pamoic acid,[1]; [10],0.092 mmol/L
same,Molar concentration of Bupivacaine,[1]; [11],0.192 mmol/L
same,Molar concentration of Pamoic acid,[1]; [11],0.088 mmol/L
same,Molar concentration of Bupivacaine,[1]; [12],0.196 mmol/L
same,Molar concentration of Pamoic acid,[1]; [12],0.092 mmol/L
same,Molar concentration of Bupivacaine,[1]; [13],0.198 mmol/L
same,Molar concentration of Pamoic acid,[1]; [13],0.092 mmol/L
same,Molar concentration of Bupivacaine,[1]; [14],0.190 mmol/L
same,Molar concentration of Pamoic acid,[1]; [14],0.084 mmol/L
same,Molar concentration of Bupivacaine,[1]; [15],0.046 mmol/L
same,Molar concentration of Pamoic acid,[1]; [15],0.024 mmol/L
same,Molar concentration of Bupivacaine,[1]; [16],0.076 mmol/L
same,Molar concentration of Pamoic acid,[1]; [16],0.038 mmol/L
same,Molar concentration of Bupivacaine,[1]; [17],0.138 mmol/L
same,Molar concentration of Pamoic acid,[1]; [17],0.076 mmol/L
same,Molar concentration of Bupivacaine,[1]; [18],0.202 mmol/L
same,Molar concentration of Pamoic acid,[1]; [18],0.106 mmol/L
same,Molar concentration of Bupivacaine,[1]; [19],0.204 mmol/L
same,Molar concentration of Pamoic acid,[1]; [19],0.108 mmol/L
same,Molar concentration of Bupivacaine,[1]; [20],0.202 mmol/L
same,Molar concentration of Pamoic acid,[1]; [20],0.106 mmol/L
same,Molar concentration of Bupivacaine,[1]; [21],0.198 mmol/L
same,Molar concentration of Pamoic acid,[1]; [21],0.104 mmol/L
same,Molar concentration of Bupivacaine,[1]; [22],0.198 mmol/L
same,Molar concentration of Pamoic acid,[1]; [22],0.106 mmol/L
same,Molar concentration of Bupivacaine,[1]; [23],0.198 mmol/L
same,Molar concentration of Pamoic acid,[1]; [23],0.106 mmol/L
same,Molar concentration of Bupivacaine,[1]; [24],0.202 mmol/L
same,Molar concentration of Pamoic acid,[1]; [24],0.106 mmol/L
same,Molar concentration of Bupivacaine,[1]; [25],0.200 mmol/L
same,Molar concentration of Pamoic acid,[1]; [25],0.106 mmol/L
same,Molar concentration of Bupivacaine,[1]; [26],0.196 mmol/L
same,Molar concentration of Pamoic acid,[1]; [26],0.100 mmol/L
same,Molar concentration of Bupivacaine,[1]; [27],0.038 mmol/L
same,Molar concentration of Pamoic acid,[1]; [27],0.020 mmol/L
same,Molar concentration of Bupivacaine,[1]; [28],0.080 mmol/L
same,Molar concentration of Pamoic acid,[1]; [28],0.042 mmol/L
same,Molar concentration of Bupivacaine,[1]; [29],0.192 mmol/L
same,Molar concentration of Pamoic acid,[1]; [29],0.100 mmol/L
same,Molar concentration of Bupivacaine,[1]; [30],0.240 mmol/L
same,Molar concentration of Pamoic acid,[1]; [30],0.134 mmol/L
same,Molar concentration of Bupivacaine,[1]; [31],0.246 mmol/L
same,Molar concentration of Pamoic acid,[1]; [31],0.134 mmol/L
same,Molar concentration of Bupivacaine,[1]; [32],0.242 mmol/L
same,Molar concentration of Pamoic acid,[1]; [32],0.134 mmol/L
same,Molar concentration of Bupivacaine,[1]; [33],0.234 mmol/L
same,Molar concentration of Pamoic acid,[1]; [33],0.13 mmol/L
same,Molar concentration of Bupivacaine,[1]; [34],0.232 mmol/L
same,Molar concentration of Pamoic acid,[1]; [34],0.128 mmol/L
same,Molar concentration of Bupivacaine,[1]; [35],0.226 mmol/L
same,Molar concentration of Pamoic acid,[1]; [35],0.124 mmol/L
same,Molar concentration of Bupivacaine,[1]; [36],0.226 mmol/L
same,Molar concentration of Pamoic acid,[1]; [36],0.124 mmol/L
same,Molar concentration of Bupivacaine,[1]; [37],0.230 mmol/L
same,Molar concentration of Pamoic acid,[1]; [37],0.126 mmol/L
same,Molar concentration of Bupivacaine,[1]; [38],0.224 mmol/L
same,Molar concentration of Pamoic acid,[1]; [38],0.120 mmol/L
same,Molar concentration of Bupivacaine,[1]; [39],0.036 mmol/L
same,Molar concentration of Pamoic acid,[1]; [39],0.020 mmol/L
same,Molar concentration of Bupivacaine,[1]; [40],0.092 mmol/L
same,Molar concentration of Pamoic acid,[1]; [40],0.050 mmol/L
same,Molar concentration of Bupivacaine,[1]; [41],0.252 mmol/L
same,Molar concentration of Pamoic acid,[1]; [41],0.138 mmol/L
same,Molar concentration of Bupivacaine,[1]; [42],0.328 mmol/L
same,Molar concentration of Pamoic acid,[1]; [42],0.182 mmol/L
same,Molar concentration of Bupivacaine,[1]; [43],0.336 mmol/L
same,Molar concentration of Pamoic acid,[1]; [43],0.186 mmol/L
same,Molar concentration of Bupivacaine,[1]; [44],0.338 mmol/L
same,Molar concentration of Pamoic acid,[1]; [44],0.192 mmol/L
same,Molar concentration of Bupivacaine,[1]; [45],0.338 mmol/L
same,Molar concentration of Pamoic acid,[1]; [45],0.190 mmol/L
same,Molar concentration of Bupivacaine,[1]; [46],0.334 mmol/L
same,Molar concentration of Pamoic acid,[1]; [46],0.186 mmol/L
same,Molar concentration of Bupivacaine,[1]; [47],0.326 mmol/L
same,Molar concentration of Pamoic acid,[1]; [47],0.182 mmol/L
same,Molar concentration of Bupivacaine,[1]; [48],0.328 mmol/L
same,Molar concentration of Pamoic acid,[1]; [48],0.186 mmol/L
same,Molar concentration of Bupivacaine,[1]; [49],0.336 mmol/L
same,Molar concentration of Pamoic acid,[1]; [49],0.186 mmol/L
same,Molar concentration of Bupivacaine,[1]; [50],0.336 mmol/L
same,Molar concentration of Pamoic acid,[1]; [50],0.184 mmol/L
same,Compound concentration: Bupivacaine,[2]; [51],112.8 µM
same,Compound concentration: Pamoic acid,[2]; [51],57.2 µM
same,Compound concentration: Bupivacaine,[2]; [52],153.8 µM
same,Compound concentration: Pamoic acid,[2]; [52],77.9 µM
same,Compound concentration: Bupivacaine,[2]; [53],239.4 µM
same,Compound concentration: Pamoic acid,[2]; [53],120.2 µM
same,Compound concentration: Bupivacaine,"[2]; 0.01 M PBS pH 7.4, 37° C., 1 h",257.4 µM
same,Compound concentration: Pamoic acid,"[2]; 0.01 M PBS pH 7.4, 37° C., 1 h",127.8 µM
same,Compound concentration: Bupivacaine,"[2]; 0.01 M PBS pH 7.4, 37° C., 2 h",287.5 µM
same,Compound concentration: Pamoic acid,"[2]; 0.01 M PBS pH 7.4, 37° C., 2 h",141.5 µM
same,Compound concentration: Bupivacaine,"[2]; 0.01 M PBS pH 7.4, 37° C., 6 h",290.1 µM
same,Compound concentration: Pamoic acid,"[2]; 0.01 M PBS pH 7.4, 37° C., 6 h",146.7 µM
same,Compound concentration: Bupivacaine,[2]; [54],290.3 µM
same,Compound concentration: Pamoic acid,[2]; [54],143 µM
same,stability of the suspension (ratio between acid radical and basic group),[2]; simulated body fluid,stable
same,solubility,"[2]; simulated body fluid, 0.01 M PBS pH 7.4, 37° C.",about 0.3 mM
